This note sets out measurements from publication PMC7146870, “VanZ Reduces the Binding of Lipoglycopeptide Antibiotics to Staphylococcus aureus and Streptococcus pneumoniae Cells” (Frontiers in Microbiology, 2020).

Values after ≈ are worked out from the molar mass of the structure shown. Like-named read-outs stand apart in the source and are kept apart here.

One assay has as its system S. pneumoniae R6. Briefly: MIC, broth microdilution, wild type. It is filed as cell-based, Streptococcus pneumoniae. Conditions: ISO 20776-1, twice in triplicate. The procedure:
(§1) Minimal Inhibitory Concentrations were measured by the broth microdilution method according to ISO standard 20776-1 (EUCAST 2019). S. aureus strains with pRMC2, pRMC2:vanZTei and pRMC2:vanZg plasmids were cultured in the presence of 25 μg/ml chloramphenicol and 100 ng/ml AnhTet (Sigma-Aldrich, Germany) to induce vanZ gene expression. All measurements were performed twice in triplicate. S. aureus ATCC29213 was used as a control. MIC values of clinically accepted glycopeptide antibiotics were interpreted according to EUCAST clinical breakpoints (EUCAST, 2019).

Another assay relates to S. aureus ATCC29213. Nature of the assay: MIC, broth microdilution, control strain. Format: cell-based, Staphylococcus aureus. Conditions: ISO 20776-1 (EUCAST 2019), performed twice in triplicate. The procedure:
as §1

The subject of assay [1] is S. aureus RN4220 pRMC2:vanZg. Nature of the assay: MIC, broth microdilution, strain expressing vanZg. Format: cell-based, Staphylococcus aureus. Conditions: for MIC: S. aureus RN4220 vanZg, broth microdilution, ISO 20776-1, 25 μg/ml chloramphenicol and 100 ng/ml AnhTet, twice in triplicate; for decrease of susceptibility of S. aureus by expression of vanZg: MIC of RN4220 vanZg versus RN4220 pRMC2.
Source text: (§2) The vanZTei and vanZg genes and their ribosome binding sites were amplified from the plasmid pAT398 ([Arthur et al., 1995]) and E. faecium Aus0004 chromosomal DNA, respectively, using the primers TecVanZ_SacI_F, TecVanZ_R, gVanZ_SacI_F, and gVanZ_R (Supplementary Table S1). The PCR products were cloned into the pRMC2 shuttle vector under the control of the anhydrotetracycline (AnhTet)-inducible promoter Pxyl/tetO using SacI and EcoRI restriction sites, resulting in the constructs pRMC2:vanZTei and pRMC2:vanZg. The constructs were confirmed by sequencing and then electroporated into S. aureus RN4220. Using the same procedure, we prepared the constructs pRMC2:vanZTei-His and pRMC2:vanZg-His encoding C-terminal His-tagged VanZ variants. However, primers TecVanZhis_R and gVanZhis_R replaced the reverse primers TecVanZ_R and gVanZ_R.
as §1

For the next assay, the system named is S. pneumoniae R6 ΔvanZ. Nature of the assay: MIC, broth microdilution, vanZ knockout. Format: cell-based, Streptococcus pneumoniae.
Source text: (§3) Strain Sp539 (ΔvanZ) was constructed using a Sweet Janus cassette-based two-step negative selection strategy ([Sung et al., 2001]; [Li et al., 2014]). The Sweet Janus cassette contains the kanamycin resistance gene, the recessive rpsL gene and the sacB gene, which confers sucrose sensitivity (Su^S), as counterselectable markers. In the first step, 1000 bp fragments corresponding to the upstream and downstream flanking regions of the vanZ gene (spr0050) were amplified from the wild-type chromosomal DNA with the primer pairs KB60/KB61 and KB62/KB63, respectively. The Sweet Janus cassette (2807 bp) amplified from the Sweet Janus cassette DNA fragment with the primers DP1/DP2 was attached to the regions flanking vanZ by fusion PCR using primers KB60 and KB63. The resulting PCR fragment was used for the transformation of the S. pneumoniae R6 strain, and Kan^R/Su^S transformants (Sp537, vanZ:kan sacB) were selected. The PCR fragments consisting of the upstream and downstream flanking regions of the vanZ gene were amplified by the KB60/KB65 and KB64/KB63 primer pairs, respectively, and fused by overlap extension using primers KB60/KB63. The resulting fragment was transformed into the Sp537 strain to obtain Sp539 (Su^R/Kan^S). To complement the vanZ deletion, we constructed strain Sp635 (Su^R/Kan^S; ΔvanZ:vanZ) by transforming strain Sp537 (Kan^R/Su^S) with the PCR fragment amplified with the primers KB60 and KB63 that contained wild-type loci using R6 chromosomal DNA as a template.
as §1

The test system of assay [2] is S. pneumoniae R6 ΔvanZ:vanZ. Briefly: MIC, broth microdilution, vanZ-reverted strain. Format: cell-based, Streptococcus pneumoniae.
Source text: as §3, §1

Another assay concerns S. aureus RN4220 pRMC2. Nature of the assay: MIC, broth microdilution, empty vector strain. Format: cell-based, Staphylococcus aureus. As to conditions: ISO 20776-1, 25 μg/ml chloramphenicol and 100 ng/ml AnhTet, twice in triplicate.
Source text: as §2, §1

For assay [3], the system named is S. aureus RN4220 pRMC2:vanZTei. Briefly: MIC, broth microdilution, strain expressing vanZTei. Format: cell-based, Staphylococcus aureus. Conditions: for MIC: S. aureus RN4220 vanZTei, broth microdilution, ISO 20776-1, 25 μg/ml chloramphenicol and 100 ng/ml AnhTet, twice in triplicate; for decrease of susceptibility of S. aureus by expression of vanZTei: MIC of RN4220 vanZTei versus RN4220 pRMC2.
Source text: as §2, §1

Where [4] appears, read: Streptococcus pneumoniae, read-out: MIC.
[5] abbreviates: Staphylococcus aureus, ATCC29213, S. aureus ATCC 29213 (control), read-out: MIC.
Setting [6] is: Staphylococcus aureus, read-out: MIC.
Where [7] appears, read: Staphylococcus aureus, RN4220PRMC2, S. aureus RN4220 pRMC2 (no VanZ), read-out: MIC.
Setting [8] is: S. pneumoniae R6 ΔvanZ, broth microdilution, ISO 20776-1, twice in triplicate.
The mark [9] stands for this setting: S. pneumoniae R6 ΔvanZ:vanZ (complemented), broth microdilution, ISO 20776-1, twice in triplicate.
Setting [10] is: S. aureus RN4220 pRMC2 (no VanZ).

Turning to `CC1(C)S[C@@H]2[C@H](NC(=O)C(C(=O)O)c3ccccc3)C(=O)N2[C@H]1C(=O)O` (some centres unmarked) [CARB, carbenicillin], the minimal inhibitory concentration (MIC) was found to be 0.0625 µg/mL (≈ 0.165 µM) in the assay on S. pneumoniae R6 (setting [4]); 0.25 µg/mL (≈ 0.661 µM) in the assay on S. aureus ATCC29213 (setting [5]); 0.25 µg/mL (≈ 0.661 µM) in assay [1] (setting [6]); 0.0625 µg/mL (≈ 0.165 µM) in the assay on S. pneumoniae R6 ΔvanZ (Streptococcus pneumoniae); 0.0625 µg/mL (≈ 0.165 µM) in assay [2] (Streptococcus pneumoniae); 0.25 µg/mL (≈ 0.661 µM) in the assay on S. aureus RN4220 pRMC2 (setting [7]). For the same compound, the MIC in assay [3] (setting [6]) is 0.25 µg/mL (≈ 0.661 µM).
On to `CC[C@H]1OC(=O)[C@H](C)[C@@H](O[C@H]2C[C@@](C)(OC)[C@@H](O)[C@H](C)O2)[C@H](C)[C@@H](O[C@@H]2O[C@H](C)C[C@H](N(C)C)[C@H]2O)[C@](C)(O)C[C@@H](C)C(=O)[C@H](C)[C@@H](O)[C@]1(C)O` [ERY, erythromycin], for which the MIC (in the assay on S. pneumoniae R6 (setting [4]); with S. aureus ATCC29213 (setting [5]); in assay [1] (setting [6]); against S. pneumoniae R6 ΔvanZ (Streptococcus pneumoniae); in assay [2] (Streptococcus pneumoniae); in the assay with S. aureus RN4220 pRMC2 (setting [7])) was 0.125 µg/mL (≈ 0.17 µM) in each case. Besides, in assay [3] (setting [6]), the MIC is 0.125 µg/mL (≈ 0.17 µM).
As for `CNC(C)C1CCC(N)C(OC2C(N)CC(N)C(OC3OCC(C)(O)C(NC)C3O)C2O)O1` (centres unmarked) [GEN, gentamicin], the MIC was 0.25 µg/mL (≈ 0.523 µM) in the assay with S. pneumoniae R6 (setting [4]); 1 µg/mL (≈ 2.09 µM) in the assay on S. aureus ATCC29213 (setting [5]); 1 µg/mL (≈ 2.09 µM) in assay [1] (setting [6]); 0.25 µg/mL (≈ 0.523 µM) against S. pneumoniae R6 ΔvanZ (Streptococcus pneumoniae); 0.25 µg/mL (≈ 0.523 µM) in assay [2] (Streptococcus pneumoniae); 1 µg/mL (≈ 2.09 µM) in the assay on S. aureus RN4220 pRMC2 (setting [7]). Moreover, the MIC in assay [3] (setting [6]) turned out to be 1 µg/mL (≈ 2.09 µM).
In the case of dalbavancin, the MIC against S. pneumoniae R6 was determined as 0.03125 µg/mL; against S. aureus ATCC29213 (S. aureus ATCC 29213 (control)), 0.125 µg/mL; in assay [1], 0.5 µg/mL; against S. pneumoniae R6 ΔvanZ (setting [8]), 0.0078 µg/mL. Also, the “decrease of susceptibility of S. aureus by expression of vanZg” value (“decrease of susceptibility … of vanZg” for short) in assay [1] is “four-fold”. For the same compound, the “decrease of susceptibility of S. aureus by expression of vanZTei” value (“decrease of susceptibility … of vanZTei” below) in assay [3] was “less or no activity”.
Turning to oritavancin, the MIC against S. pneumoniae R6 was found to be 0.0078 µg/mL; against S. aureus ATCC29213 (S. aureus ATCC 29213 (control)), 0.125 µg/mL; in assay [1], 0.25 µg/mL; against S. pneumoniae R6 ΔvanZ (setting [8]), 0.0039 µg/mL; in assay [2] (setting [9]) it was 0.0078 µg/mL. Also, in assay [1], the “decrease of susceptibility … of vanZg” value is “two times”. Besides, the “decrease of susceptibility … of vanZTei” value in assay [3] is on record as “less or no activity”.
In the case of teicoplanin, the MIC was determined as 0.125 µg/mL in the assay on S. pneumoniae R6; 0.125 µg/mL in the assay on S. aureus ATCC29213 (S. aureus ATCC 29213 (control)); 8 µg/mL in assay [1]; 0.03125 µg/mL against S. pneumoniae R6 ΔvanZ (setting [8]); 0.5 µg/mL in the assay on S. aureus RN4220 pRMC2 (setting [10]); 1 µg/mL in assay [3]. In assay [1], the “decrease of susceptibility … of vanZg” value is 16 fold. For the same compound, the “decrease of susceptibility … of vanZTei” value in assay [3] is given as “less or no activity”.
As to vancomycin, the MIC against S. pneumoniae R6 is 0.25 µg/mL; in the assay on S. aureus ATCC29213 (S. aureus ATCC 29213 (control)) it was 0.25 µg/mL; in assay [1], 1 µg/mL; in the assay with S. pneumoniae R6 ΔvanZ (setting [8]), 0.25 µg/mL; in assay [2] (setting [9]), 0.25 µg/mL; in the assay on S. aureus RN4220 pRMC2 (setting [10]) it was 0.5 µg/mL. In addition, in assay [3], the MIC was 0.5 µg/mL. The “sensitivity of the ΔvanZ mutant compared with the wild-type strain” value in the assay on S. pneumoniae R6 ΔvanZ (MIC of S. pneumoniae R6 ΔvanZ versus R6) is “not”.
